In ChEMBL document CHEMBL3739354, “Nitrofuranyl Methyl Piperazines as New Anti-TB Agents: Identification, Validation, Medicinal Chemistry, and PK Studies” (ACS Med Chem Lett, 2015):
Converted amounts (≈) assume the structure as drawn.

Key:
[1] = tested on: Mycobacterium tuberculosis; assay: microbe, parasite or virus in culture; conditions: H37Rv ATCC 27294, 168 h
Description: Antimycobacterial activity against Mycobacterium tuberculosis H37Rv ATCC 27294 after 7 days by REMA method

[2] = Cmax in Swiss mouse at 10 mg/kg, po by LC-MS/MS analysis; type: ADME, organism-based; parameters: dose 10 mg/kg, route oral; conditions: in vivo
[3] = Solubility of compound in PBS buffer; type: physicochemical
[4] = Solubility of compound in simulated intestinal fluid; type: ADME
[5] = tested on: Mycobacterium tuberculosis; assay: microbe, parasite or virus in culture; conditions: 18b, 168 h
Description: Antimycobacterial activity against non-replicating streptomycin starved Mycobacterium tuberculosis 18b after 7 days by REMA method

[6] = Half life in Swiss mouse at 10 mg/kg, po by LC-MS/MS analysis; type: ADME, organism-based; conditions: in vivo
[7] = Solubility of compound in simulated gastric fluid; type: ADME, Stomach
[8] = Tmax in Swiss mouse at 10 mg/kg, po by LC-MS/MS analysis; type: ADME, organism-based; conditions: in vivo
[9] = Solubility of compound in water; type: physicochemical
[10] = AUC(0 to t) in Swiss mouse at 10 mg/kg, po by LC-MS/MS analysis; type: ADME, organism-based; conditions: in vivo
[11] = Cytotoxicity against human HepG2 cells after 24 hrs by MTT assay; type: cell-based
[12] = Selectivity index, ratio of CC50 for human HepG2 cells to MIC90 for Mycobacterium tuberculosis H37Rv ATCC 27294; type: toxicity, cell-based; conditions: read-out: Selectivity Index

Row | SMILES | MIC90 [1] [µM] | MIC90 [5] [µM] | CC50 at 24 h [11] [µM] | selectivity ratio [12] | other results
1 | O=[N+]([O-])c1ccc(CN2CCN(c3ccccc3)CC2)o1 | 0.2 (≈ 0.0575 µg/mL) |  |  |  | 
2 | Cc1cccc(N2CCN(Cc3ccc([N+](=O)[O-])o3)CC2)c1C | 12.7 (≈ 4 µg/mL) |  |  |  | 
3 | CC(C)(C)c1ccc(N2CCN(Cc3ccc([N+](=O)[O-])o3)CC2)cc1 | 0.0072 (≈ 0.00247 µg/mL) | 12.6 (≈ 4.33 µg/mL) | > 63 | > 700 | Cmax [2]: 2.35 µM; solubility [3]: 58.2 µM (≈ 20 µg/mL); solubility [4]: 2.9 µM (≈ 0.996 µg/mL); half-life [6]: 242 min; solubility [7]: 1170 µM (≈ 400 µg/mL); Tmax [8]: 15 min; solubility [9]: 116 µM (≈ 40 µg/mL); AUC(0-t) [10]: 2.99 µM·h
4 | CC(=O)c1ccc(N2CCN(Cc3ccc([N+](=O)[O-])o3)CC2)cc1 | 0.3 (≈ 0.0988 µg/mL) |  |  |  | 
5 | O=[N+]([O-])c1ccc(CN2CCN(c3ccc(N4CCOCC4)cc3)CC2)o1 | 0.02 (≈ 0.00745 µg/mL) | 0.56 (≈ 0.209 µg/mL) | > 53 | > 2650 | Cmax [2]: 5.34 µM; half-life [6]: 52.8 min; Tmax [8]: 15 min; solubility [9]: 2.68 µM (≈ 0.998 µg/mL); AUC(0-t) [10]: 4.51 µM·h
6 | COc1ccccc1N1CCN(Cc2ccc([N+](=O)[O-])o2)CC1 | 25.2 (≈ 8 µg/mL) |  |  |  | 
7 | O=[N+]([O-])c1ccc(CN2CCN(c3ccc(Cl)cc3)CC2)o1 | 0.37 (≈ 0.119 µg/mL) | 1.4 (≈ 0.45 µg/mL) | > 58 | > 11600 | 
8 | c1ccc(N2CCN(Cc3ccco3)CC2)cc1 | > 16.5 |  |  |  | 
9 | COc1c(N2CCNC(C)C2)c(F)cc2c(=O)c(C(=O)O)cn(C3CC3)c12 (stereo unspecified) [GATIFLOXACIN] |  | 2.66 (≈ 0.999 µg/mL) |  |  | 
10 | O=[N+]([O-])c1ccc(CN2CCN(c3ccc(F)cc3)CC2)o1 | 3.27 (≈ 0.998 µg/mL) |  |  |  | 
11 | O=[N+]([O-])c1ccc(CN2CCN(S(=O)(=O)c3ccc(F)cc3)CC2)o1 | 0.08 (≈ 0.0295 µg/mL) | > 21.6 | > 54 | > 675 | Cmax [2]: 3.26 µM; solubility [3]: 54.1 µM (≈ 20 µg/mL); solubility [4]: 13.5 µM (≈ 4.99 µg/mL); half-life [6]: 87.6 min; solubility [7]: 2170 µM (≈ 801 µg/mL); Tmax [8]: 15 min; solubility [9]: 108 µM (≈ 40 µg/mL); AUC(0-t) [10]: 4.22 µM·h
12 | COc1ccc(S(=O)(=O)N2CCN(Cc3ccc([N+](=O)[O-])o3)CC2)cc1 | 0.31 (≈ 0.118 µg/mL) |  |  |  | 
13 | Cc1ccc(S(=O)(=O)N2CCN(Cc3ccc([N+](=O)[O-])o3)CC2)cc1 | 0.16 (≈ 0.0585 µg/mL) | > 21.9 | > 54 | > 338 | 
14 | O=[N+]([O-])c1ccc(CN2CCN(S(=O)(=O)c3ccccc3)CC2)o1 | 0.17 (≈ 0.0597 µg/mL) | > 22.7 | > 56 | > 329 | 
15 | O=[N+]([O-])c1ccc(CN2CCN(c3cccc(Cl)c3)CC2)o1 | 0.37 (≈ 0.119 µg/mL) |  |  |  | 
16 | CC(C)(C)OC(=O)N1CCN(Cc2ccc([N+](=O)[O-])o2)CC1 | 0.048 (≈ 0.0149 µg/mL) | 1.6 (≈ 0.498 µg/mL) | > 64 | > 1600 | Cmax [2]: 3.81 µM; solubility [3]: 2570 µM (≈ 800 µg/mL); solubility [4]: 2570 µM (≈ 800 µg/mL); half-life [6]: 101 min; solubility [7]: 2570 µM (≈ 800 µg/mL); Tmax [8]: 15 min; solubility [9]: 1290 µM (≈ 400 µg/mL); AUC(0-t) [10]: 2.71 µM·h

Row | SMILES | MIC90 [1] [µM] | MIC90 [5] [µM] | CC50 at 24 h [11] [µM] | selectivity ratio [12] | other results
17 | O=[N+]([O-])c1ccc(S(=O)(=O)N2CCN(Cc3ccc([N+](=O)[O-])o3)CC2)cc1 | 0.15 (≈ 0.0595 µg/mL) | 20.1 (≈ 7.97 µg/mL) | > 50 | > 333 | 
18 | COc1ccc(N2CCN(Cc3ccc([N+](=O)[O-])o3)CC2)cc1 | 0.12 (≈ 0.0381 µg/mL) |  |  |  | 
19 | O=[N+]([O-])c1ccc(CN2CCN(S(=O)(=O)c3ccc(C(F)(F)F)cc3)CC2)o1 | 0.5 (≈ 0.21 µg/mL) |  |  |  | 
20 | O=[N+]([O-])c1ccc(CN2CCC(c3ccccc3)CC2)o1 | 0.59 (≈ 0.169 µg/mL) |  |  |  | 
21 | O=[N+]([O-])c1ccc(CN2CCN(c3cccc(C(F)(F)F)c3)CC2)o1 | 0.33 (≈ 0.117 µg/mL) |  |  |  | 
22 | O=[N+]([O-])c1ccc(CN2CCOCC2)o1 | 31.4 (≈ 6.66 µg/mL) |  |  |  | 
23 | CC(=O)c1ccc(N2CCN(Cc3ccc([N+](=O)[O-])s3)CC2)cc1 | > 11.5 |  |  |  | 
24 | O=[N+]([O-])c1ccc(CN2CCN(c3ccccc3)CC2)s1 | > 13.1 |  |  |  | 
25 | CS(=O)(=O)N1CCN(Cc2ccc([N+](=O)[O-])o2)CC1 | 23.1 (≈ 6.67 µg/mL) |  |  |  | 
26 | Cc1ccc(N2CCN(Cc3ccc([N+](=O)[O-])o3)CC2)cc1 | 13.2 (≈ 3.98 µg/mL) |  |  |  | 
27 | CO[C@H]1/C=C/O[C@@]2(C)Oc3c(C)c(O)c4c(O)c(c(/C=N/N5CCN(C)CC5)c(O)c4c3C2=O)NC(=O)/C(C)=C\C=C\[C@H](C)[C@H](O)[C@@H](C)[C@@H](O)[C@@H](C)[C@H](OC(C)=O)[C@@H]1C [RIFAMPIN] | 0.07 (≈ 0.0576 µg/mL) | 2.4 (≈ 1.98 µg/mL) |  |  | 
28 | COc1cccc(S(=O)(=O)N2CCN(Cc3ccc([N+](=O)[O-])o3)CC2)c1 | 1.3 (≈ 0.496 µg/mL) |  |  |  | 
29 | COc1cccc(N2CCN(Cc3ccc([N+](=O)[O-])o3)CC2)c1 | 0.047 (≈ 0.0149 µg/mL) | 2.11 (≈ 0.67 µg/mL) | > 63 | > 1580 | 
30 | O=[N+]([O-])c1ccc(CN2CCN(c3ccc(Cl)cc3)CC2)s1 | > 11.8 |  |  |  | 
31 | O=[N+]([O-])c1ccc(CN2CCN(c3ccccc3F)CC2)o1 | 6.55 (≈ 2 µg/mL) |  |  |  | 
32 | N#Cc1cccc(N2CCN(Cc3ccc([N+](=O)[O-])o3)CC2)c1 | 0.019 (≈ 0.00593 µg/mL) | 1.34 (≈ 0.419 µg/mL) | > 64 | > 3200 | solubility [3]: 256 µM (≈ 80 µg/mL); solubility [4]: 32 µM (≈ 9.99 µg/mL); solubility [7]: 2560 µM (≈ 801 µg/mL); solubility [9]: 256 µM (≈ 80 µg/mL)
